Key:
Assay type in all cases: in vivo
soybean (Glycine max) = assay: Test C preemergence, plant response rating; details: Glycine max, pre-emergence, Preemergence
Outline: (§1)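 Pre-emergence: seeds sown in loam soil–sand blend or silt loam and sprayed with test chemicals in a non-phytotoxic solvent mixture with surfactant. Post-emergence: plants 2 to 18 cm (1- to 4-leaf stage) in peat-based potting medium, same formulation. Greenhouse 13 to 15 d; visual rating 0 (no effect) to 100 (complete control) versus controls.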

[1] = system: velvetleaf (Abutilon theophrasti); assay: Test C preemergence, plant response rating; details: Abutilon theophrasti, pre-emergence, Preemergence
Outline: as §1

[2] = system: lambsquarters (Chenopodium album); assay: Test C preemergence, plant response rating; details: Chenopodium album, pre-emergence, Preemergence
Outline: as §1

[3] = system: wheat (winter wheat, Triticum aestivum); assay: Test C preemergence, plant response rating; details: Triticum aestivum, pre-emergence, Preemergence
Outline: as §1

[4] = system: morningglory (Ipomoea coccinea); assay: Test C preemergence, plant response rating; details: Ipomoea, pre-emergence, Preemergence
Outline: as §1

[5] = system: waterhemp (common waterhemp, Amaranthus rudis); assay: Test C preemergence, plant response rating; details: Amaranthus tuberculatus, pre-emergence, Preemergence
Outline: as §1

[6] = system: foxtail, giant (giant foxtail, Setaria faberii); assay: Test C preemergence, plant response rating; details: Setaria faberi, pre-emergence, Preemergence
Outline: as §1

[7] = system: ragweed (common ragweed, Ambrosia elatior); assay: Test C preemergence, plant response rating; details: Ambrosia artemisiifolia, pre-emergence, Preemergence
Outline: as §1

[8] = system: crabgrass, large (large crabgrass, Digitaria sanguinalis); assay: Test C preemergence, plant response rating; details: Digitaria sanguinalis, pre-emergence, Preemergence
Outline: as §1

[9] = system: oilseed rape (Brassica napus); assay: Test C preemergence, plant response rating; details: Brassica napus, pre-emergence, Preemergence
Outline: as §1

[10] = system: ryegrass, Italian (Italian ryegrass, Lolium multiflorum); assay: Test C preemergence, plant response rating; details: Lolium multiflorum, pre-emergence, Preemergence
Outline: as §1

[11] = system: nutsedge, yellow (yellow nutsedge, Cyperus esculentus); assay: Test C preemergence, plant response rating; details: Cyperus, pre-emergence, Preemergence
Outline: as §1

[12] = system: blackgrass (Alopecurus myosuroides); assay: Test C preemergence, plant response rating; details: Alopecurus myosuroides, pre-emergence, Preemergence
Outline: as §1

corn (Zea mays) = assay: Test C preemergence, plant response rating; details: Zea mays, pre-emergence, Preemergence
Outline: as §1

[13] = system: pigweed (Amaranthus retroflexus); assay: Test A preemergence, visual injury rating; details: Amaranthus retroflexus, pre-emergence, 240 h, 0 to 100 scale (0 no effect, 100 complete control), read-out: Pigweed plant response rating
Outline: (§2)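 Visual 0–100 rating (100 = complete control) taken about 10 d post-treatment relative to untreated checks. Preemergence: directed soil spray on sown loam/sand pots. Postemergence: seedlings 2–10 cm, 1–2 leaf. Non-phytotoxic solvent formulation with surfactant.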

[14] = system: ragweed (common ragweed, Ambrosia elatior); assay: Test A preemergence, visual injury rating; details: Ambrosia artemisiifolia, pre-emergence, 240 h, 0 to 100 scale (0 no effect, 100 complete control), read-out: Ragweed plant response rating
Outline: as §2

[15] = system: giant foxtail (Setaria faberii); assay: Test A preemergence, visual injury rating; details: Setaria faberi, pre-emergence, 240 h, 0 to 100 scale (0 no effect, 100 complete control), read-out: Foxtail, Giant plant response rating
Outline: as §2

[16] = system: Italian ryegrass (Lolium multiflorum); assay: Test A preemergence, visual injury rating; details: Lolium multiflorum, pre-emergence, 240 h, 0 to 100 scale (0 no effect, 100 complete control), read-out: Ryegrass, Italian plant response rating
Outline: as §2

N#Cc1cccc(Oc2ncc(Cl)cn2)c1CCCCC(F)(F)F [Compound 73, 3-[(5-chloro-2-pyrimidinyl)oxy]-2-(5,5,5-trifluoropentyl)benzonitrile]
plant injury at 125 g/ha (soybean (Glycine max); 125 g ai/ha, scale of 0 to 100): 40%
plant injury at 16 g/ha (soybean (Glycine max); 16 g ai/ha, scale 0 to 100): 0%
plant injury at 31 g/ha (soybean (Glycine max); 31 g ai/ha, scale 0 to 100): 0%
plant injury at 62 g/ha (soybean (Glycine max); 62 g ai/ha, scale 0 to 100): 25%
pest or weed control at 125 g/ha ([1]; 125 g ai/ha, scale of 0 to 100): 95%
pest or weed control at 16 g/ha ([1]; 16 g ai/ha, scale 0 to 100): 0%
pest or weed control at 31 g/ha ([1]; 31 g ai/ha, scale 0 to 100): 30%
pest or weed control at 62 g/ha ([1]; 62 g ai/ha, scale 0 to 100): 75%
pest or weed control at 125 g/ha ([2]; 125 g ai/ha, scale of 0 to 100): 100%
pest or weed control at 16 g/ha ([2]; 16 g ai/ha, scale 0 to 100): 85%
pest or weed control at 31 g/ha ([2]; 31 g ai/ha, scale 0 to 100): 90%
pest or weed control at 62 g/ha ([2]; 62 g ai/ha, scale 0 to 100): 90%
plant injury at 125 g/ha ([3]; 125 g ai/ha, scale of 0 to 100): 70%
plant injury at 16 g/ha ([3]; 16 g ai/ha, scale 0 to 100): 0%
plant injury at 31 g/ha ([3]; 31 g ai/ha, scale 0 to 100): 0%
plant injury at 62 g/ha ([3]; 62 g ai/ha, scale 0 to 100): 30%
pest or weed control at 125 g/ha ([4]; 125 g ai/ha, scale of 0 to 100): 75%
pest or weed control at 16 g/ha ([4]; 16 g ai/ha, scale 0 to 100): 0%
pest or weed control at 31 g/ha ([4]; 31 g ai/ha, scale 0 to 100): 10%
pest or weed control at 62 g/ha ([4]; 62 g ai/ha, scale 0 to 100): 60%
pest or weed control at 125 g/ha ([5]; 125 g ai/ha, scale of 0 to 100): 100%
pest or weed control at 16 g/ha ([5]; 16 g ai/ha, scale 0 to 100): 65%
pest or weed control at 31 g/ha ([5]; 31 g ai/ha, scale 0 to 100): 100%
pest or weed control at 62 g/ha ([5]; 62 g ai/ha, scale 0 to 100): 100%
pest or weed control at 62 g/ha ([6]; 62 g ai/ha, scale of 0 to 100): 100%
pest or weed control at 125 g/ha ([6]; 125 g ai/ha, scale of 0 to 100): 100%
pest or weed control at 16 g/ha ([6]; 16 g ai/ha, scale 0 to 100): 98%
pest or weed control at 31 g/ha ([6]; 31 g ai/ha, scale 0 to 100): 100%
pest or weed control at 125 g/ha ([7]; 125 g ai/ha, scale of 0 to 100): 25%
pest or weed control at 16 g/ha ([7]; 16 g ai/ha, scale 0 to 100): 0%
pest or weed control at 31 g/ha ([7]; 31 g ai/ha, scale 0 to 100): 0%
pest or weed control at 62 g/ha ([7]; 62 g ai/ha, scale 0 to 100): 10%
pest or weed control at 62 g/ha ([8]; 62 g ai/ha, scale of 0 to 100): 100%
pest or weed control at 125 g/ha ([8]; 125 g ai/ha, scale of 0 to 100): 100%
pest or weed control at 16 g/ha ([8]; 16 g ai/ha, scale 0 to 100): 98%
pest or weed control at 31 g/ha ([8]; 31 g ai/ha, scale 0 to 100): 100%
plant injury at 125 g/ha ([9]; 125 g ai/ha, scale of 0 to 100): 65%
plant injury at 16 g/ha ([9]; 16 g ai/ha, scale 0 to 100): 0%
plant injury at 31 g/ha ([9]; 31 g ai/ha, scale 0 to 100): 20%
plant injury at 62 g/ha ([9]; 62 g ai/ha, scale 0 to 100): 50%
pest or weed control at 125 g/ha ([10]; 125 g ai/ha, scale of 0 to 100): 100%
pest or weed control at 16 g/ha ([10]; 16 g ai/ha, scale 0 to 100): 30%
pest or weed control at 31 g/ha ([10]; 31 g ai/ha, scale 0 to 100): 35%
pest or weed control at 62 g/ha ([10]; 62 g ai/ha, scale 0 to 100): 85%
pest or weed control at 125 g/ha ([11]; 125 g ai/ha, scale of 0 to 100): 10%
pest or weed control at 16 g/ha ([11]; 16 g ai/ha, scale 0 to 100): 0%
pest or weed control at 31 g/ha ([11]; 31 g ai/ha, scale 0 to 100): 0%
pest or weed control at 62 g/ha ([11]; 62 g ai/ha, scale 0 to 100): 0%
pest or weed control at 62 g/ha ([12]; 62 g ai/ha, scale of 0 to 100): 100%
pest or weed control at 125 g/ha ([12]; 125 g ai/ha, scale of 0 to 100): 100%
pest or weed control at 16 g/ha ([12]; 16 g ai/ha, scale 0 to 100): 5%
pest or weed control at 31 g/ha ([12]; 31 g ai/ha, scale 0 to 100): 98%
Corn plant response rating (crop injury, 0 = no effect, 100 = complete kill) at 62 g/ha (corn (Zea mays); 62 g ai/ha, scale of 0 to 100): 40%
Corn plant response rating (crop injury, 0 = no effect, 100 = complete kill) at 125 g/ha (corn (Zea mays); 125 g ai/ha, scale of 0 to 100): 50%
Corn plant response rating (crop injury, 0 = no effect, 100 = complete kill) at 16 g/ha (corn (Zea mays); 16 g ai/ha, scale 0 to 100): 0%
Corn plant response rating (crop injury, 0 = no effect, 100 = complete kill) at 31 g/ha (corn (Zea mays); 31 g ai/ha, scale 0 to 100): 20%
pest or weed control at 125 g/ha ([13]; 125 g ai/ha): 100%
pest or weed control at 500 g/ha ([13]; 500 g ai/ha): 100%
pest or weed control at 125 g/ha ([14]; 125 g ai/ha): 10%
pest or weed control at 500 g/ha ([14]; 500 g ai/ha): 50%
pest or weed control at 125 g/ha ([15]; 125 g ai/ha): 100%
pest or weed control at 500 g/ha ([15]; 500 g ai/ha): 100%
pest or weed control at 125 g/ha ([16]; 125 g ai/ha): 50%
pest or weed control at 500 g/ha ([16]; 500 g ai/ha): 90%

Reference: patent US11053204B2, “Pyrimidinyloxy benzene derivatives as herbicides” (FMC Corporation, priority 2015, dated 2021)
